Patent US8247211B2, “Glycopeptide antibiotics” (American Cyanamid Company, priority 2001, dated 2012)
≈ marks a conversion by molar mass, not a printed value.

What was measured:
Assay in all cases: In vitro antibacterial evaluation: minimum inhibitory concentration (MIC), broth dilution method
Format in all cases: cell-based
Staphylococcus sp. = conditions: for MIC Staphylococcus aureus (ATCC 29213): strain ATCC 29213; for MIC Staphylococcus aureus (GC 1131): strain GC 1131; for MIC Staphylococcus aureus (GC 3051): strain GC 3051; for MIC Staphylococcus aureus (GC 3053): strain GC 3053; for MIC Staphylococcus aureus (GC 4541): strain GC 4541; for MIC Staphylococcus aureus (GC 4542): strain GC 4542; for MIC Staphylococcus aureus (GC 4544): strain GC 4544; for MIC Staphylococcus aureus (GC 4545): strain GC 4545
Description: (§1) The minimum inhibitory concentration (MIC), the lowest concentration of the antibiotic which inhibits growth of the test organism, is determined by the broth dilution method using Muller-Hinton II […] (Baltimore Biological Laboratories) following the recommendations of the National Committee for Clinical Laboratory Standards [Methods for dilution antimicrobial susceptibility tests for bacteria that grow aerobically, approved standard M7-A2, National Committee for Clinical Laboratory Standards, Villanova, Pa].
(§2) An inoculum level of 5×10^5 CFU/mL, and a range of antibiotic concentrations (64-0.06 μg/mL) is used. […] The test organisms include a spectrum of Gram-positive bacteria comprised of Staphylococcus sp., Streptococcus sp. and Enterococcus sp. These organisms include recent clinical isolates that are resistant to methicillin, penicillin and/or vancomycin.

Escherichia coli = conditions: 5×10^5 CFU/mL, 18 hours at 35° C.
Description: as §1, §2

Enterococcus sp. = conditions: broth dilution, 5×10^5 CFU/mL, 18 hours at 35° C.
Description: as §1, §2

Streptococcus sp. = conditions: broth dilution, 5×10^5 CFU/mL, 18 hours at 35° C.
Description: as §1, §2

[1] = broth dilution, 5×10^5 CFU/mL, 18 hours at 35° C.
[2] = broth dilution, 18 hours at 35° C.
[3] = strain GC 4543, broth dilution, 18 hours at 35° C.
[4] = strain GC 4546, broth dilution, 18 hours at 35° C.
[5] = strain GC 4547, broth dilution, 18 hours at 35° C.
[6] = strain GC 4548, broth dilution, 18 hours at 35° C.
[7] = strain GC 4549, broth dilution, 18 hours at 35° C.
[8] = strain GC 4551, broth dilution, 18 hours at 35° C.
[9] = strain GC 6257, broth dilution, 18 hours at 35° C.

## CC(c1ccccc1)C1NC(=O)CNC(=O)C(CO)NC(=O)C(C(O)C2CNC(=N)N2C2OC(CO)C(O)C(O)C2O)NC(=O)C(C(O)C2CNC(=N)N2)NC(=O)C(Cc2ccc(OC3OC(CO)C(OC4OC5COC(CC67CC8CC(CC(C8)C6)C7)OC5C(O)C4O)C(O)C3O)cc2)NC1=O (stereo not shown) [Example 129]
Staphylococcus sp.; [1]
  MIC Coagulase Negative Staphylococcus (GC 4547): 2 µg/mL (≈ 1.37 µM)
  MIC Coagulase Negative Staphylococcus (GC 4548): 1 µg/mL (≈ 0.687 µM)
  MIC Coagulase Negative Staphylococcus (GC 4549): 1 µg/mL (≈ 0.687 µM)
  MIC Coagulase Negative Staphylococcus (GC 4551): 4 µg/mL (≈ 2.75 µM)
  MIC Coagulase Negative Staphylococcus (GC 6257): 1 µg/mL (≈ 0.687 µM)
  MIC Staphylococcus aureus-SMITH (GC 4543): 2 µg/mL (≈ 1.37 µM)
  MIC Staphylococcus haemolyticus (GC 4546): 2 µg/mL (≈ 1.37 µM)
Staphylococcus sp.
  MIC Staphylococcus aureus (ATCC 29213): 4 µg/mL (≈ 2.75 µM)
  MIC Staphylococcus aureus (GC 1131): 2 µg/mL (≈ 1.37 µM)
  MIC Staphylococcus aureus (GC 3051): 2 µg/mL (≈ 1.37 µM)
  MIC Staphylococcus aureus (GC 3053): 2 µg/mL (≈ 1.37 µM)
  MIC Staphylococcus aureus (GC 4541): 2 µg/mL (≈ 1.37 µM)
  MIC Staphylococcus aureus (GC 4542): 2 µg/mL (≈ 1.37 µM)
  MIC Staphylococcus aureus (GC 4544): 2 µg/mL (≈ 1.37 µM)
  MIC Staphylococcus aureus (GC 4545): 2 µg/mL (≈ 1.37 µM)
Staphylococcus sp.; [2]
  MIC Staphylococcus aureus (ATCC 29213): 4 µg/mL (≈ 2.75 µM)
  MIC Staphylococcus aureus (GC 1131): 2 µg/mL (≈ 1.37 µM)
  MIC Staphylococcus aureus (GC 3051): 2 µg/mL (≈ 1.37 µM)
  MIC Staphylococcus aureus (GC 3053): 2 µg/mL (≈ 1.37 µM)
  MIC Staphylococcus aureus (GC 4541): 2 µg/mL (≈ 1.37 µM)
  MIC Staphylococcus aureus (GC 4542): 2 µg/mL (≈ 1.37 µM)
  MIC Staphylococcus aureus (GC 4544): 2 µg/mL (≈ 1.37 µM)
  MIC Staphylococcus aureus (GC 4545): 2 µg/mL (≈ 1.37 µM)
Staphylococcus sp.; [3]
  MIC Staphylococcus aureus-SMITH (GC 4543): 2 µg/mL (≈ 1.37 µM)
Staphylococcus sp.; [4]
  MIC Staphylococcus haemolyticus (GC 4546): 2 µg/mL (≈ 1.37 µM)
Staphylococcus sp.; [5]
  MIC Coagulase Negative Staphylococcus (GC 4547): 2 µg/mL (≈ 1.37 µM)
Staphylococcus sp.; [6]
  MIC Coagulase Negative Staphylococcus (GC 4548): 1 µg/mL (≈ 0.687 µM)
Staphylococcus sp.; [7]
  MIC Coagulase Negative Staphylococcus (GC 4549): 1 µg/mL (≈ 0.687 µM)
Staphylococcus sp.; [8]
  MIC Coagulase Negative Staphylococcus (GC 4551): 4 µg/mL (≈ 2.75 µM)
Staphylococcus sp.; [9]
  MIC Coagulase Negative Staphylococcus (GC 6257): 1 µg/mL (≈ 0.687 µM)
Escherichia coli
  MIC Escherichia coli (ATCC 25922): 32 µg/mL (≈ 22 µM)
  MIC Escherichia coli (GC 4559): 32 µg/mL (≈ 22 µM)
  MIC Escherichia coli (GC 4560): 2 µg/mL (≈ 1.37 µM)
Enterococcus sp.
  MIC Enterococccus avium (GC 4558): 2 µg/mL (≈ 1.37 µM)
  MIC Enterococccus faecalis (ATCC 29212): 2 µg/mL (≈ 1.37 µM)
  MIC Enterococccus faecalis (GC 2691): 2 µg/mL (≈ 1.37 µM)
  MIC Enterococccus faecalis (GC 3059): 2 µg/mL (≈ 1.37 µM)
  MIC Enterococccus faecalis (GC 4552): 2 µg/mL (≈ 1.37 µM)
  MIC Enterococccus faecalis (GC 4553): 2 µg/mL (≈ 1.37 µM)
  MIC Enterococccus faecalis (GC 4554): 2 µg/mL (≈ 1.37 µM)
  MIC Enterococccus faecalis (GC 6189): 2 µg/mL (≈ 1.37 µM)
  MIC Enterococccus faecium (GC 2243): 2 µg/mL (≈ 1.37 µM)
  MIC Enterococccus faecium (GC 4556): 2 µg/mL (≈ 1.37 µM)
  MIC Enterococccus faecium (GC 4557): 2 µg/mL (≈ 1.37 µM)
  MIC Enterococcus faecalis (GC 2242): 2 µg/mL (≈ 1.37 µM)
Streptococcus sp.
  MIC Streptococcus agalactiae (GC 4564): <0.06 µg/mL
  MIC Streptococcus pneumoniae (GC 1894): <0.06 µg/mL
  MIC Streptococcus pneumoniae (GC 4565): <0.06 µg/mL
  MIC Streptococcus pneumonine (ATCC 6301): <0.06 µg/mL
  MIC Streptococcus pyogenes (GC 4563): <0.06 µg/mL

## COC1CCC2(C)C(CCC3C2CCC2(C)C(C(C)CCC4OCC5OC(OC6C(CO)OC(Oc7ccc(CC8NC(=O)C(C(C)c9ccccc9)NC(=O)CNC(=O)C(CO)NC(=O)C(C(O)C9CNC(=N)N9C9OC(CO)C(O)C(O)C9O)NC(=O)C(C(O)C9CNC(=N)N9)NC8=O)cc7)C(O)C6O)C(O)C(O)C5O4)CCC32)C1 (stereo not drawn) [Example 130, Cyclo[glycyl-β-methylphenylalanyl-O-[4-O-[4,6-O-(3-methoxycholan-24-ylidene)hexopyranosyl]hexopyranosyl]tyrosyl-3-(2-iminoimidazolidin-4-yl)seryl-3-(3-hexopyranosyl-2-iminoimidazolidin-4-yl)serylseryl]]
Staphylococcus sp.; [1]
  MIC Coagulase Negative Staphylococcus (GC 4547): 32 µg/mL (≈ 19.4 µM)
  MIC Coagulase Negative Staphylococcus (GC 4548): 32 µg/mL (≈ 19.4 µM)
  MIC Coagulase Negative Staphylococcus (GC 4549): 16 µg/mL (≈ 9.69 µM)
  MIC Coagulase Negative Staphylococcus (GC 4551): 32 µg/mL (≈ 19.4 µM)
  MIC Coagulase Negative Staphylococcus (GC 6257): 32 µg/mL (≈ 19.4 µM)
  MIC Staphylococcus aureus-SMITH (GC 4543): 32 µg/mL (≈ 19.4 µM)
  MIC Staphylococcus haemolyticus (GC 4546): 32 µg/mL (≈ 19.4 µM)
Staphylococcus sp.
  MIC Staphylococcus aureus (ATCC 29213): 32 µg/mL (≈ 19.4 µM)
  MIC Staphylococcus aureus (GC 1131): 32 µg/mL (≈ 19.4 µM)
  MIC Staphylococcus aureus (GC 3051): 32 µg/mL (≈ 19.4 µM)
  MIC Staphylococcus aureus (GC 3053): 32 µg/mL (≈ 19.4 µM)
  MIC Staphylococcus aureus (GC 4541): 32 µg/mL (≈ 19.4 µM)
  MIC Staphylococcus aureus (GC 4542): 32 µg/mL (≈ 19.4 µM)
  MIC Staphylococcus aureus (GC 4544): 32 µg/mL (≈ 19.4 µM)
  MIC Staphylococcus aureus (GC 4545): 32 µg/mL (≈ 19.4 µM)
Staphylococcus sp.; [2]
  MIC Staphylococcus aureus (ATCC 29213): 32 µg/mL (≈ 19.4 µM)
  MIC Staphylococcus aureus (GC 1131): 32 µg/mL (≈ 19.4 µM)
  MIC Staphylococcus aureus (GC 3051): 32 µg/mL (≈ 19.4 µM)
  MIC Staphylococcus aureus (GC 3053): 32 µg/mL (≈ 19.4 µM)
  MIC Staphylococcus aureus (GC 4541): 32 µg/mL (≈ 19.4 µM)
  MIC Staphylococcus aureus (GC 4542): 32 µg/mL (≈ 19.4 µM)
  MIC Staphylococcus aureus (GC 4544): 32 µg/mL (≈ 19.4 µM)
  MIC Staphylococcus aureus (GC 4545): 32 µg/mL (≈ 19.4 µM)
Staphylococcus sp.; [3]
  MIC Staphylococcus aureus-SMITH (GC 4543): 32 µg/mL (≈ 19.4 µM)
Staphylococcus sp.; [4]
  MIC Staphylococcus haemolyticus (GC 4546): 32 µg/mL (≈ 19.4 µM)
Staphylococcus sp.; [5]
  MIC Coagulase Negative Staphylococcus (GC 4547): 32 µg/mL (≈ 19.4 µM)
Staphylococcus sp.; [6]
  MIC Coagulase Negative Staphylococcus (GC 4548): 32 µg/mL (≈ 19.4 µM)
Staphylococcus sp.; [7]
  MIC Coagulase Negative Staphylococcus (GC 4549): 16 µg/mL (≈ 9.69 µM)
Staphylococcus sp.; [8]
  MIC Coagulase Negative Staphylococcus (GC 4551): 32 µg/mL (≈ 19.4 µM)
Staphylococcus sp.; [9]
  MIC Coagulase Negative Staphylococcus (GC 6257): 32 µg/mL (≈ 19.4 µM)
Escherichia coli
  MIC Escherichia coli (ATCC 25922): >64 µg/mL
  MIC Escherichia coli (GC 4559): >64 µg/mL
  MIC Escherichia coli (GC 4560): 64 µg/mL (≈ 38.7 µM)
Enterococcus sp.
  MIC Enterococccus avium (GC 4558): 16 µg/mL (≈ 9.69 µM)
  MIC Enterococccus faecalis (ATCC 29212): 32 µg/mL (≈ 19.4 µM)
  MIC Enterococccus faecalis (GC 2691): 32 µg/mL (≈ 19.4 µM)
  MIC Enterococccus faecalis (GC 3059): 64 µg/mL (≈ 38.7 µM)
  MIC Enterococccus faecalis (GC 4552): 32 µg/mL (≈ 19.4 µM)
  MIC Enterococccus faecalis (GC 4553): 8 µg/mL (≈ 4.84 µM)
  MIC Enterococccus faecalis (GC 4554): 32 µg/mL (≈ 19.4 µM)
  MIC Enterococccus faecalis (GC 6189): 32 µg/mL (≈ 19.4 µM)
  MIC Enterococccus faecium (GC 2243): 8 µg/mL (≈ 4.84 µM)
  MIC Enterococccus faecium (GC 4556): 64 µg/mL (≈ 38.7 µM)
  MIC Enterococccus faecium (GC 4557): 32 µg/mL (≈ 19.4 µM)
  MIC Enterococcus faecalis (GC 2242): 32 µg/mL (≈ 19.4 µM)
Streptococcus sp.
  MIC Streptococcus agalactiae (GC 4564): 8 µg/mL (≈ 4.84 µM)
  MIC Streptococcus pneumoniae (GC 1894): 1 µg/mL (≈ 0.605 µM)
  MIC Streptococcus pneumoniae (GC 4565): 4 µg/mL (≈ 2.42 µM)
  MIC Streptococcus pneumonine (ATCC 6301): 8 µg/mL (≈ 4.84 µM)
  MIC Streptococcus pyogenes (GC 4563): 16 µg/mL (≈ 9.69 µM)
